Source: patent US4124598A, “Psoralens” (Hoffmann-La Roche Inc., priority 1976, dated 1978)

Tests used:
Calf thymus DNA = assay: Equilibrium dialysis, non-covalent binding to DNA; settings: for Kd: 0.01 M Tris, non-covalent binding; for (PS)/(S) for DNA in Saturated Solution: occupied/unoccupied binding sites
Experimental: (§1) In order to establish the dissociation constants from DNA and RNA, the non-covalent binding was ascertained. Non-covalent binding determines the presence of the psoralen within the nucleic acid helix. Its presence is determined in the absence of any radiant energy. As noted before, radiant energy is necessary to activate the psoralen covalent binding reaction with nucleic acid base pairs.
(§2) To determine the non-covalent binding, Calf thymus DNA (Sigma Type I) was dissolved in a 0.01 M Tris 0.001 M EDTA pH 8.5 buffer at a concentration of 25 ug/ml. A quantity of this DNA solution was placed in a dialysis bag (pretreated by boiling in NaHCO3), and the various tritiated derivatives were added inside the bag in half the cases and outside the bag in the other half. The molar ratio of psoralen molecules to base pairs was approximately 1:25. The bags were placed in vials filled with 18 ml of buffer and put on a shaker for 48-60 hours. After this period, radioactivity was determined both inside and outside the bags and the optical density of the DNA solution measured. From this information, and the specific activity of each derivative, the amount of drug non-covalently bound to the DNA was determined. Binding of the derivatives to Drosophila melanogaster ribosomal RNA was measured in exactly the same manner.
(§3) The units of the dissociation constants are moles/liter. Solubilities and molar extinction coefficients (ε) were obtained in pure water, the equilibrium constants (KD) in 0.01 M Tris.

[1] = molecular target: Drosophila melanogaster ribosomal RNA; assay: Equilibrium dialysis, non-covalent binding to RNA; settings: for Kd: 0.01 M Tris, non-covalent binding; for (PS)/(S) for RNA in Saturated Solution: occupied/unoccupied binding sites
Experimental: as §1, §2, §3

Solubility in pure water = assay type: physicochemical; settings: pure water
Description: In order to study solubilities and dissociation constants, it is most convenient to prepare tritiated derivatives of the psoralen compounds. Thus, well-known radiation counting methods may be utilized to monitor the presence of the psoralens in solutions, or in nucleic acids.
as §3

[2] = Molar extinction coefficient in pure water; assay type: physicochemical
Description: as §3

DNA (calf thymus) [3] = assay: High intensity photoaddition (covalent binding) to DNA; settings: 25 μg/ml DNA, psoralen:base pair 1:3
Experimental: (§4) The covalent binding of the psoralens to DNA and RNA was studied. To achieve covalent binding, it is necessary to supply radiant energy (light) to the binding sites. These studies were carried out as follows:
(§5) The DNA and RNA used in the covalent binding studies have been described previously. Samples of each nucleic acid were prepared at a concentration of 25 ug/ml in 0.01 m Tris 0.001 M EDTA buffer. The radioactive-psoralen derivatives were added in a ratio of one psoralen for every three base pairs. The irradiation was carried out in one of the two following devices.
(§6) The low intensity irradiations were performed with a modified slide projector which was fitted with a 400 watt General Electric mercury vapor lamp (H 400 A 33-1/T16). The image of the arc was focused on the same cell, jacketed by a cobaltous nitrate solution which was also used for the high intensity irradiations. The light intensity delivered to the sample in this device was 4 to 6 mw/cm^2. The high intensity irradiations were carried out in a device containing two of the sam 400 watt General Electric mercury vapor lamps which were mounted on either side of a double walled sample chamber at a distance between centers of 4.0 cm. The chamber was cooled to 10° C. by continuous circulation of a temperature regulated solution of cobaltous nitrate (40% w/w). The cobalt solution served as an ultraviolet filter which allowed a maximum transmittance of 365 nm light and a window from approximately 340-380 nm. The intensity of the light at the surface of the inner sample chamber was approximately 100 mw/cm^2. The nucleic acid-psoralen mixture was placed in the inner chamber where it was continuously stirred throughout the irradiation. Aliquots of each solution (derivative plus nucleic acid) were taken at 20, 40 and 60 minutes. Each aliquot was then extracted twice with chloroform/iso-amyl alcohol (24:1) to remove unreacted psoralen followed by exhaustive dialysis against 0.01 M Tris, 0.001 M EDTA buffer. The successful extraction of unbound psoralen by the chloroform-isoamyl alcohol required the aqueous phase to be at least 0.15 M in NaCl. Finally, the optical density of the nucleic-acid psoralen mixture was taken and its radioactivity determined, thus giving the amount of derivative covalently bound to the DNA or RNA. Taking samples, at spaced time intervals also permitted an assessment of the kinetics of the covalent binding.

[4] = tested on: RNA (Drosophila melanogaster ribosomal RNA); assay: High intensity photoaddition (covalent binding) to RNA; settings: 25 μg/ml RNA, psoralen:base pair 1:3
Experimental: as §4, §5, §6

[5] = tested on: vesicular stomatitis virus; assay type: cell-based, Vesicular stomatitis virus Indiana strain
DNA = assay: Reactivity with DNA (general statement); assay type: binding, calf
Experimental: as §4, §5
as §6, with “Each aliquot was then extracted twice with chloroform/iso-amyl alcohol (24:1) to remove unreacted psoralen followed by exhaustive dialysis against 0.01 M Tris, 0.001 M EDTA buffer. The successful extraction of unbound psoralen by the chloroform-isoamyl alcohol required the aqueous phase to be at least 0.15 M in NaCl.” left out, “Taking samples, at spaced time intervals also permitted an assessment of the kinetics of the covalent binding.” left out

DNA (calf thymus) [6] = assay: Low intensity photoaddition (covalent binding) to DNA; settings: for A (footnote 1, shown as drawing 9) / B = percent of added psoralen covalently bound: 25 μg/ml DNA, psoralen:base pair 1:3
Experimental: as §4, §5
as §6, with “Aliquots of each solution (derivative plus nucleic acid) were taken at 20, 40 and 60 minutes.” left out

## COCc1c(C)oc2c(C)c3oc(=O)cc(C)c3cc12 [4'-methoxymethyl-4,5',8-trimethyl psoralen]
Calf thymus DNA
  Kd: 94 µM
Calf thymus DNA; saturated solution, expected from KD and solubility
  DNA site saturation, one psoralen per base pairs: one psoralen per three base pairs
Calf thymus DNA; saturated solution
  (PS)/(S) for DNA in Saturated Solution: 0.39
Calf thymus DNA; saturated solution, listed as 4'-methoxymethyl trioxsalen
  (PS)/(S) for DNA in Saturated Solution: 0.5
Calf thymus DNA; vs methoxsalen
  times more strongly binding to DNA than methoxsalen: 10 times
[1]
  Kd: 1000 µM
  (PS)/(S) for RNA in Saturated Solution: 0.037
Solubility in pure water
  solubility: 10 µg/mL
Solubility in pure water; molar
  solubility: 37 µM
[2]
  Extinction coefficient ε, 250 nm: 21000 L/mol/cm
DNA (calf thymus) [3]; 20 min irradiation
  A (footnote 1, shown as drawing 10): 14.1
  B = percent of added psoralen covalently bound: 21.3%
DNA (calf thymus) [3]; 40 min irradiation
  A (footnote 1, shown as drawing 10): 14.3
  B = percent of added psoralen covalently bound: 21.0%
DNA (calf thymus) [3]; 60 min irradiation
  A (footnote 1, shown as drawing 10): 13.8
  B = percent of added psoralen covalently bound: 21.7%
[4]; 20 min irradiation
  A (footnote 1, shown as drawing 11): 264.2
  B = percent of added psoralen covalently bound: 1.2%
[4]; 40 min irradiation
  A (footnote 1, shown as drawing 11): 216.8
  B = percent of added psoralen covalently bound: 1.4%
[4]; 60 min irradiation
  A (footnote 1, shown as drawing 11): 183.4
  B = percent of added psoralen covalently bound: 1.6%
[5]; high dose rates, e.g., 30 μg/ml
  effectiveness in inactivation of vesicular stomatitis virus vs 4,5',8-trimethyl psoralen: nearly one thousand times more effective
DNA
  reactivity with DNA: excellent reactivity with DNA

## Cc1cc2cc3c(C)cc(=O)oc3c(C)c2o1 [trioxsalen, 4,5',8-trimethyl psoralen, reference compound]
Calf thymus DNA
  Kd: 56 µM
Calf thymus DNA; saturated solution
  one psoralen per n base pairs at equilibrium (best achievable): ~20 base pairs
  (PS)/(S) for DNA in Saturated Solution: 0.046
Calf thymus DNA; vs 4'-hydroxymethyl trioxsalen (trioxsalen binding)
  times stronger binding to DNA than 4'-hydroxymethyl trioxsalen: 5 times
Calf thymus DNA; vs 4'-methoxymethyl trioxsalen
  times stronger binding to DNA than 4'-methoxymethyl trioxsalen: 2 times
[1]
  Kd: 100 µM
  (PS)/(S) for RNA in Saturated Solution: 0.026
Solubility in pure water
  solubility: 0.6 µg/mL
Solubility in pure water; molar
  solubility: 2.6 µM
[2]
  Extinction coefficient ε, 250 nm: 18000 L/mol/cm
DNA (calf thymus) [6]
  rate of reaction with DNA / initial rate of photochemical binding: greater initial rate of photochemical binding than 4'-hydroxymethyl trioxsalen
DNA (calf thymus) [6]; 5 min irradiation
  A (footnote 1, shown as drawing 9): 19.7
  B = percent of added psoralen covalently bound: 15.5%
DNA (calf thymus) [6]; 10 min irradiation
  A (footnote 1, shown as drawing 9): 15.5
  B = percent of added psoralen covalently bound: 19.7%
DNA (calf thymus) [6]; 30 min irradiation
  A (footnote 1, shown as drawing 9): 13.7
  B = percent of added psoralen covalently bound: 22.1%
DNA (calf thymus) [6]; 60 min irradiation
  A (footnote 1, shown as drawing 9): 12.8
  B = percent of added psoralen covalently bound: 23.6%
DNA (calf thymus) [6]; 90 min irradiation
  A (footnote 1, shown as drawing 9): 10.6
  B = percent of added psoralen covalently bound: 28.5%
DNA (calf thymus) [6]; 90 minutes irradiation
  moles of psoralen bound per mole of base pairs: 0.09 moles per mole of base pairs
DNA (calf thymus) [3]; 20 min irradiation
  A (footnote 1, shown as drawing 10): 11.6
  B = percent of added psoralen covalently bound: 25.9%
DNA (calf thymus) [3]; 40 min irradiation
  A (footnote 1, shown as drawing 10): 10.6
  B = percent of added psoralen covalently bound: 28.3%
DNA (calf thymus) [3]; 60 min irradiation
  A (footnote 1, shown as drawing 10): 12.2
  B = percent of added psoralen covalently bound: 24.6%
[4]; 20 min irradiation
  A (footnote 1, shown as drawing 11): 23.1
  B = percent of added psoralen covalently bound: 13.0%
[4]; 40 min irradiation
  A (footnote 1, shown as drawing 11): 21.6
  B = percent of added psoralen covalently bound: 13.9%
[4]; 60 min irradiation
  A (footnote 1, shown as drawing 11): 20.6
  B = percent of added psoralen covalently bound: 14.8%
[5]; FIG. 1, from 10 μg/ml to 30 μg/ml
  effect of increasing concentration on ability to inactivate the virus: no effect on its ability to inactivate the virus
